We go through 18 molecules from PubChem BioAssay (NCI).

What all share (test): NCI tumour cell line growth inhibition, 48 h
In experiment [1] the test system is DMS 273 small cell lung.
Experiment [2] deals with RXF-631 renal.
Experiment [3] deals with SNB-78 CNS.
Experiment [4] has as its system DMS 114 small cell lung.
Experiment [5] concerns LXFL 529 NSCLC.
Experiment [6] deals with M19-MEL melanoma.
The subject of experiment [7] is XF 498 CNS.
In experiment [8] the test system is SN12K1 renal.
Experiment [9] has as its system P388 leukemia.
Experiment [10] concerns P388/ADR leukemia.

Molecules are shown by their SMILES. Values joined by “and” are separate entries in the source; they are usually repeats but may differ in a detail not shown here. Equal entries are not always repeated.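 A five-concentration, 48-hour dose response in 96-well plates underlies each endpoint, interpolated linearly between surrounding concentrations. The concentration for 50% growth inhibition is given as GI50. TGI: total growth inhibition.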

As to `C[C@H]1[C@H](C)CC[C@]2(C(=O)O)CCC3(COC(=O)/C=C/c4ccc(O)cc4)C(=CCC4[C@@]5(C)CC[C@H](O)C(C)(C)C5CC[C@]43C)[C@H]12` (stereo partly drawn), the TGI in experiment [1] was 25.9 µM; in experiment [2], 30.4 µM; in experiment [3] it was more than 100 µM; in experiment [4], 32 µM; in experiment [5], 24.8 µM; in experiment [6] it was more than 100 µM.

As to `CCOC(=O)C(C(=O)OCC)S(C)(=O)=O`, the TGI in experiment [1], in experiment [2], in experiment [4], in [7] and in experiment [6] was more than 100 µM in each case.

For the molecule `C[N+]1(C)C/C(=C\C=C\c2ccccc2)C(=O)/C(=C/C=C/c2ccccc2)C1`, the TGI in experiment [3] was more than 100 µM; in experiment [4], 10.9 µM; in experiment [5] it was 11.6 µM; in experiment [7], 57.4 µM; in experiment [6], 31.7 µM.

On to `O=S1(=O)OCCOS(=O)(=O)C1(Br)Br`, for which the TGI in experiment [1], in experiment [3], in experiment [4], in [5] and in experiment [6] was more than 100 µM each time.

With `O=C(O)C1Cc2[nH]c3ccccc3c2C2CCCC12` (stereo not drawn), the TGI in experiment [1], in [3], in experiment [4], in [5], in [7] and in experiment [6] was more than 100 µM throughout.

For `CC(C)OP(=O)(OC(C)C)/C(=N/Nc1ccc([N+](=O)[O-])cc1)NNC(=O)c1ccccc1`, the TGI stood at 80.4 µM in experiment [3]; 43.1 µM in experiment [4]; 68.5 µM in [5]; 48.1 µM in [7]; 41.2 µM in experiment [6].

Turning to `O=C(/C=C/c1ccc(O)c(O)c1)c1ccc(O)cc1O`, the TGI came to 25 µM in experiment [1], 58.3 µM in experiment [3], 7.55 µM in [4] and 27.1 µM in [6].

For `Cc1cc(N(CCC#N)CCC#N)ccc1/C=C(\N=[N+]=[N-])C(=O)NC(=O)COc1ccccc1`, the TGI in experiment [1], in experiment [2], in experiment [3], in experiment [4], in [5] and in [7] was more than 100 µM in each case.

As to `NCCNc1ccc(NCCN)c2c1C(=O)c1c(O)ccc(O)c1C2=O`, the TGI was 1.13 µM in experiment [2]; 0.905 µM and 1.03 µM in experiment [5]; 0.298 µM in [7]; 1.04 µM and 1.17 µM in experiment [6]. Besides, the GI50 is 0.105 µM in experiment [5] and 0.104 µM in experiment [6].

In the case of `COc1cc2cnc3c4cc(O)ccc4ccc3c2cc1OC`, the TGI in experiment [4] was 39.4 µM; in experiment [5], more than 100 µM; in experiment [6], more than 100 µM.

For `COc1ccccc1NC(=O)C(=O)C(c1cnc2ccc([N+](=O)[O-])cc2n1)[N+](=O)[O-]` (stereo not drawn), the TGI in experiment [1] is more than 100 µM; in [2] it was more than 100 µM; in experiment [3], more than 100 µM; in experiment [4], 66.4 µM; in experiment [5], more than 100 µM; in experiment [7] it was more than 100 µM. The TGI in [6] was more than 100 µM.

In the case of `Cc1nc2c(n1Cc1ccc(F)cc1)C(=O)c1ccccc1C2=O`, the TGI in [1] is more than 100 µM; in experiment [3], more than 100 µM; in experiment [5], more than 100 µM; in experiment [7] it was more than 100 µM; in experiment [6], 13.5 µM.

As for `CC1=C(N2CC2)C(=O)C(C)=C(N2CC2)C1=O`, the TGI in experiment [1] was 1.38 µM; in experiment [3], more than 100 µM; in experiment [4], 0.471 µM; in experiment [5], 0.431 µM; in experiment [7] it was 0.3 µM; in experiment [6], 0.92 µM.

Turning to `COc1ccc(OC)c(CCc2ccccc2CC(=O)O)c1`, the TGI in experiment [1], in experiment [3], in experiment [4], in [5], in [7] and in experiment [6] was more than 100 µM each time.

`COc1cc(Cn2c3ccccc3c3cc(C)cc(OC)c32)cc2c1[nH]c1ccccc12`: the GI50 in experiment [1] is 15.2 µM; in experiment [5], 17 µM. Besides, the TGI in experiment [1], in experiment [3], in experiment [4], in [5] and in experiment [6] was more than 25 µM each time.

As for `COc1cc2c(c(OC)c1)C(=O)C(=O)C(CC1(C)OCCCO1)=C2`, the TGI in experiment [1] came out at 28.4 µM; in experiment [2] it was 36.6 µM; in experiment [3], 26 µM; in [4], 12.7 µM; in experiment [5], 14.6 µM; in experiment [7], 25.6 µM. For the same molecule, in [6], the TGI was 6.18 µM.

As to `N#CCCN(c1ccc(C=Nc2ccc(C(=O)O)cc2)cc1)S(=O)(=O)c1ccccc1`, the TGI in [1], in experiment [3], in [4], in [5], in experiment [7] and in [6] was more than 100 µM each time.

As for `Nc1n[nH]c(N)n1`, the TGI in experiment [1] was 6450 µM; in experiment [8], more than 10000 µM; in [9], 4240 µM; in experiment [3], more than 8560 µM; in experiment [4] it was 6880 µM; in experiment [10], 8070 µM. For the same molecule, the TGI was 2750 µM in experiment [7] and more than 10000 µM in [6].
